Experiments:
[1] = tested on: Rat basophilic leukemia (RBL-2H3) cells; test: Mast cell degranulation assay (β-hexosaminidase release); format: cell-based; conditions: Rattus norvegicus
Procedure: The assay measures release of β-hexosaminidase as a marker of release of various preformed pharmacological agents in response to clustering of the high affinity IgE receptor (FcεRI) by means of multivalent antigen-IgE complexes. Rat basophilic leukemia (RBL-2H3) cells, a commonly used model of mast cell degranulation, are sensitized with anti-DNP specific IgE and challenged with multivalent DNP-BSA. The release of β-hexosaminidase into the supernatant is measured by enzymatic conversion of the fluorogenic substrate 4-methylumbelliferyl-N-acetyl-β-D-glucosaminide to N-acetyl-β-D-glucosamine and highly fluorescent methylumbelliferone and quantified by fluorescence detection in a Tecan Safire™ plate reader.
RBL-2H3 cells obtained from the German Collection of Microorganisms and Cell Cultures (Braunschweig, Germany) were maintained in 70% Minimum Essential Medium with Earle's Salts/20% RPMI 1640/10% heat-inactivated fetal calf serum) supplemented with 2 mM GlutaMAX™-I in 5% CO2 at 37° C. and routinely checked to be free of mycoplasma contamination. Cells grown in 175 cm^2 flasks were split with 0.05% Trypsin/EDTA and resuspended in 20 ml fresh medium. One hundred and 50 μl cell suspension were plated per well into 24 well cluster plates (Costar, Schiphol-Rijk, Netherlands) and cells were used one or two days after plating, respectively.
Two to 24 hours before incubation with test compounds the medium was removed and cells were sensitized with 0.4 μg/ml anti-DNP IgE in fresh medium. Following sensitization, cells were washed once with warm TyB and incubated for 60 min with test compound at a maximum of 100 μM or the highest non-toxic concentration (total vehicle concentration adjusted to 1%) or 1% vehicle in TyB at 37° C. DNP-HSA (0.1 μg/ml final concentration) or buffer alone was added and cells incubated for 15 min at 37° C. Plates were centrifuged at 4° C. for 5 min at 250×g and immediately transferred to ice. Supernatants were collected and the cells lysed with lysis buffer. Hexosaminidase activity in supernatants and lysates was measured by incubating 25 μl aliquots with 100 μl MUG substrate solution in a 96-well plate at 37° C. for 30 min. The reaction was terminated by addition of 150 μl stop solution. Fluorescence was measured in a Tecan Safire™ plate reader at 365 nm excitation and 440 nm emission settings.
Each compound is tested in duplicates in at least three independent experiments. β-hexosaminidase release is calculated after subtraction of unspecific release (release without addition of antigen) using the formula: % degranulation=100×RFU supernatant/RFU lysate
Inhibition of β-hexosaminidase release with respect to control is calculated as
follows: % inhibition=100×(1−(RFU supernatant of compound/RFU supernatant of control))

human basophils = test: Histamine release assay, C5a induced, human basophils; format: cell-based
Procedure: Human basophils were isolated from whole blood using ficoll paque (D=1.077). Briefly, heparinized whole blood was diluted 1:3 with PBS (w/o Ca and Mg), layered on the ficoll paque solution, and centrifuged for 30 min at 400×g. Low-density particles such as lymphocytes, monocytes, basophils, and platelets were recovered from the interface between the plasma and ficoll solution. The cell suspension from the interface was centrifuged twice at 200×g for 10 min for removal of thrombocytes from the basophil fraction. The number of basophils in the cell suspension was determined by Toluidin blue staining. The yield of basophils was approximately 2%. These pre-purified basophils were used for the histamine release assay. For the cytokine release assays, basophils were further purified using the “Basophil Isolation Kit” for depletion of non-basophils from the interface cell suspension. […] The quantification of histamine levels was achieved using an automated histamine-analyser system (Firm Borgwelt Technik). The wavelength of the excitation was 355-360 nm and the emission wavelength of fluorescence measurement was 450-460 nm. The intensity of fluorescence was directly proportional to the concentration of histamine in the samples. The amount of released histamine was calculated according to the following formula: net histamine release=(release−blank)×(100/complete). […]

IC50 ([1]; 1 h, concentration at which 50% of maximal inhibition is reached, RBL-2H3, 60 min incubation with compound, DNP antigen challenge, read-out: ID50 (the source's name)): 4.6 µM
SMILES: CCCCCCCCCCCCCCCCOP(=O)([O-])OCC[N+](C)(C)C [Compound 3, 1-hexadecylphosphoryl-choline]
inhibition at 10 µM ([1]; RBL-2H3, 10 μM, read-out: maximum inhibition (concentration used)): 87%
inhibition at 25 µM ([1]; RBL-2H3, at or 25 μM, read-out: inhibition of degranulation): > 75%
inhibition at 25 µM (human basophils): 75%

Source: patent US8394785B2, “Methods for the treatment and amelioration of urticaria” (Jado Technologies GmbH, priority 2005, dated 2013)
